Laboratory results from patent publication US20240374598A1, “INHIBITORS OF HUMAN IMMUNODEFICIENCY VIRUS REPLICATION” (ViiV HEALTHCARE UK (NO.5) LIMITED, priority 2018, published 2024).

Assays:
[1] = test system: recombinant NL4-3 virus (nef section replaced with Renilla luciferase gene) in MT-2 cells; test: HIV cell culture assay (antiviral activity, luciferase readout); type: cell-based; settings: NL43, MT-2 cells infected for 4-5 days with recombinant NL4-3 Renilla luciferase virus
Experimental: HIV cell culture assay—MT-2 cells, 293T cells and the proviral DNA clone of NL4-3 virus were obtained from the NIH AIDS Research and Reference Reagent Program. MT-2 cells were propagated in RPMI 1640 media supplemented with 10% heat inactivated fetal bovine serum (FBS), […]. The 293T cells were propagated in DMEM media supplemented with 10% heat inactivated FBS, […]. A recombinant NL4-3 proviral clone, in which a section of the nef gene was replaced with the Renilla luciferase gene, was used to make the reference virus used in these studies. The recombinant virus was prepared through transfection of the recombinant NL4-3 proviral clone into 293T cells using Transit-293 Transfection Reagent from Mirus Bio LLC (Madison, WI). Supernatent was harvested after 2-3 days and the amount of virus present was titered in MT-2 cells using luciferase enzyme activity as a marker by measuring luciferase enzyme activity. Luciferase was quantitated using the EnduRen Live Cell Substrate from Promega (Madison, WI). Antiviral activities of compounds toward the recombinant virus were quantified by measuring luciferase activity in MT-2 cells infected for 4-5 days with the recombinant virus in the presence of serial dilutions of the compound.
The 50% effective concentration (EC50) was calculated by using the exponential form of the median effect equation where (Fa)=1/[1+(ED50/drug conc.)m] (Johnson VA, Byington RT. Infectivity Assay. In Techniques in HIV Research. ed. Aldovini A, Walker BD. 71-76. New York: Stockton Press. 1990). The 50% inhibitory concentration (EC50) was calculated by using the exponential form of the median effect equation where percent inhibition=1/[1+(EC50/drug concentration)m], where m is a parameter that reflects the slope of the concentration-response curve.

[2] = Compound cytotoxicity, XTT-based colorimetric assay; type: cell-based; settings: human; uninfected MT2 cells, day 4, XTT assay
Experimental: Compound cytotoxicity and the corresponding CC50 values were determined using the same protocol as described in the antiviral assay except that uninfected cells were used. Cytotoxicity was assessed on day 4 in uninfected MT2 cells by using a XTT (2,3-bis[2-Methoxy-4-nitro-5-sulfophenyl]-2H-tetrazolium-5-carboxyanilide inner salt)-based colorimetric assay (Sigma-Aldrich, St Louis, Mo).

Compound: COc1ccc2c(=O)n(-c3ccc(Cl)c4c(NS(C)(=O)=O)nn(C)c34)c([C@H](Cc3cc(F)cc(F)c3)NC(=O)Cn3ccc(C(C)C)n3)nc2n1 [Example 35, (S)—N-(1-(3-(4-chloro-1-methyl-3-(methylsulfonamido)-1H-indazol-7-yl)-7-methoxy-4-oxo-3,4-dihydropyrido[2,3-d]pyrimidin-2-yl)-2-(3,5-difluorophenyl)ethyl)-2-(3-isopropyl-1H-pyrazol-1-yl)acetamide]
- EC50 [1]: 0.235 nM
- CC50 at 4 day [2]: > 1000 nM

Compound: CCCc1ccc2c(=O)n(-c3ccc(Cl)c4c(NS(C)(=O)=O)nn(C)c34)c([C@H](Cc3cc(F)cc(F)c3)NC(=O)Cn3nc(C(F)F)c4c3C(F)(F)[C@@H]3C[C@H]43)nc2c1 [Example 19, N—((S)-1-(3-(4-chloro-1-methyl-3-(methylsulfonamido)-1H-indazol-7-yl)-4-oxo-7-propyl-3,4-dihydroquinazolin-2-yl)-2-(3,5-difluorophenyl)ethyl)-2-((3bS,4aR)-3-(difluoromethyl)-5,5-difluoro-3b,4,4a,5-tetrahydro-1H-cyclopropa[3,4]cyclopenta[1,2-c]pyrazol-1-yl)acetamide]
- EC50 [1]: 0.063 nM
- CC50 at 4 day [2]: > 1000 nM

Compound: O=C(Cn1nc(C(F)F)c2c1C(F)(F)[C@@H]1C[C@H]21)N[C@@H](Cc1cc(F)cc(F)c1)c1nc2cc(C3CC3)ccc2c(=O)n1-c1ccc(Cl)c2c(NS(=O)(=O)C3CC3)nn(CC(F)F)c12 [Example 31, N—((S)-1-(3-(4-chloro-3-(cyclopropanesulfonamido)-1-(2,2-difluoroethyl)-1H-indazol-7-yl)-7-cyclopropyl-4-oxo-3,4-dihydroquinazolin-2-yl)-2-(3,5-difluorophenyl)ethyl)-2-((3bS,4aR)-3-(difluoromethyl)-5,5-difluoro-3b,4,4a,5-tetrahydro-1H-cyclopropa[3,4]cyclopenta[1,2-c]pyrazol-1-yl)acetamide]
- EC50 [1]: 0.046 nM
- CC50 at 4 day [2]: > 1000 nM

Compound: CC(C)Cc1ccc2c(=O)n(-c3ccc(Cl)c4c(NS(C)(=O)=O)nn(C)c34)c([C@H](Cc3cc(F)cc(F)c3)NC(=O)Cn3nc(C(F)F)c4c3C(F)(F)[C@@H]3C[C@H]43)nc2c1 [Example 25, N—((S)-1-(3-(4-chloro-1-methyl-3-(methylsulfonamido)-1H-indazol-7-yl)-7-isobutyl-4-oxo-3,4-dihydroquinazolin-2-yl)-2-(3,5-difluorophenyl)ethyl)-2-((3bS,4aR)-3-(difluoromethyl)-5,5-difluoro-3b,4,4a,5-tetrahydro-1H-cyclopropa[3,4]cyclopenta[1,2-c]pyrazol-1-yl)acetamide]
- EC50 [1]: 0.167 nM
- CC50 at 4 day [2]: > 1000 nM

Compound: COc1ccc2c(=O)n(-c3ccc(Cl)c4c(NS(C)(=O)=O)nn(C)c34)c([C@H](Cc3cc(F)cc(F)c3)NC(=O)Cn3ccc(C4CC4)n3)nc2n1 [Example 36, (S)—N-(1-(3-(4-chloro-1-methyl-3-(methylsulfonamido)-1H-indazol-7-yl)-7-methoxy-4-oxo-3,4-dihydropyrido[2,3-d]pyrimidin-2-yl)-2-(3,5-difluorophenyl)ethyl)-2-(3-cyclopropyl-1H-pyrazol-1-yl)acetamide]
- EC50 [1]: 0.131 nM
- CC50 at 4 day [2]: > 1000 nM

Compound: CCCCOc1ccc2c(=O)n(-c3ccc(Cl)c4c(NS(C)(=O)=O)nn(C)c34)c([C@H](Cc3cc(F)cc(F)c3)NC(=O)Cn3nc(C(F)F)c4c3C(F)(F)[C@@H]3C[C@H]43)nc2c1 [Example 11, N—((S)-1-(7-butoxy-3-(4-chloro-1-methyl-3-(methylsulfonamido)-1H-indazol-7-yl)-4-oxo-3,4-dihydroquinazolin-2-yl)-2-(3,5-difluorophenyl)ethyl)-2-((3bS,4aR)-3-(difluoromethyl)-5,5-difluoro-3b,4,4a,5-tetrahydro-1H-cyclopropa[3,4]cyclopenta[1,2-c]pyrazol-1-yl)acetamide]
- EC50 [1]: 0.208 nM
- CC50 at 4 day [2]: > 1000 nM

Compound: COc1nc2nc([C@H](Cc3cc(F)cc(F)c3)NC(=O)Cn3nc(C(F)F)c4c3C(F)(F)C3CC43)n(-c3ccc(Cl)c4c(NS(C)(=O)=O)nn(C)c34)c(=O)c2cc1Cl (stereo in doubt) [Example 37, N—((S)-1-(6-chloro-3-(4-chloro-1-methyl-3-(methylsulfonamido)-1H-indazol-7-yl)-7-methoxy-4-oxo-3,4-dihydropyrido[2,3-d]pyrimidin-2-yl)-2-(3,5-difluorophenyl)ethyl)-2-((3bS,4aR)-3-(difluoromethyl)-5,5-difluoro-3b,4,4a,5-tetrahydro-1H-cyclopropa[3,4]cyclopenta[1,2-c]pyrazol-1-yl)acetamide]
- EC50 [1]: 0.044 nM
- CC50 at 4 day [2]: > 1000 nM

Compound: COc1ccc2c(=O)n(-c3ccc(Cl)c4c(NS(C)(=O)=O)nn(C)c34)c([C@H](Cc3cc(F)cc(F)c3)NC(=O)Cn3ccc(C4CC4)n3)nc2c1 [Example 6, (S)—N-(1-(3-(4-chloro-1-methyl-3-(methylsulfonamido)-1H-indazol-7-yl)-7-methoxy-4-oxo-3,4-dihydroquinazolin-2-yl)-2-(3,5-difluorophenyl)ethyl)-2-(3-cyclopropyl-1H-pyrazol-1-yl)acetamide]
- EC50 [1]: 0.347 nM
- CC50 at 4 day [2]: > 1000 nM

Compound: Cn1nc(NS(C)(=O)=O)c2cccc(-n3c([C@H](Cc4cc(F)cc(F)c4)NC(=O)Cn4nc(C(F)F)c5c4C(F)(F)[C@@H]4C[C@H]54)nc4cc(C5CCCC5)ccc4c3=O)c21 [Example 33, N—((S)-1-(7-cyclopentyl-3-(1-methyl-3-(methylsulfonamido)-1H-indazol-7-yl)-4-oxo-3,4-dihydroquinazolin-2-yl)-2-(3,5-difluorophenyl)ethyl)-2-((3bS,4aR)-3-(difluoromethyl)-5,5-difluoro-3b,4,4a,5-tetrahydro-1H-cyclopropa[3,4]cyclopenta[1,2-c]pyrazol-1-yl)acetamide]
- EC50 [1]: 1.26 nM
- CC50 at 4 day [2]: > 1000 nM

Compound: CCc1ccc2c(=O)n(-c3ccc(Cl)c4c(NS(C)(=O)=O)nn(C)c34)c([C@H](Cc3cc(F)cc(F)c3)NC(=O)Cn3nc(C(F)F)c4c3C(F)(F)[C@@H]3C[C@H]43)nc2c1 [Example 16, N—((S)-1-(3-(4-chloro-1-methyl-3-(methylsulfonamido)-1H-indazol-7-yl)-7-ethyl-4-oxo-3,4-dihydroquinazolin-2-yl)-2-(3,5-difluorophenyl)ethyl)-2-((3bS,4aR)-3-(difluoromethyl)-5,5-difluoro-3b,4,4a,5-tetrahydro-1H-cyclopropa[3,4]cyclopenta[1,2-c]pyrazol-1-yl)acetamide]
- EC50 [1]: 0.084 nM
- CC50 at 4 day [2]: > 1000 nM

Compound: COc1cnc2c(=O)n(-c3ccc(Cl)c4c(NS(C)(=O)=O)nn(C)c34)c([C@H](Cc3cc(F)cc(F)c3)NC(=O)Cn3nc(C(F)F)c4c3C(F)(F)C3CC43)nc2c1 (stereo in doubt) [Example 39, N—((S)-1-(3-(4-chloro-1-methyl-3-(methylsulfonamido)-1H-indazol-7-yl)-7-methoxy-4-oxo-3,4-dihydropyrido[3,2-d]pyrimidin-2-yl)-2-(3,5-difluorophenyl)ethyl)-2-((3bS,4aR)-3-(difluoromethyl)-5,5-difluoro-3b,4,4a,5-tetrahydro-1H-cyclopropa[3,4]cyclopenta[1,2-c]pyrazol-1-yl)acetamide]
- EC50 [1]: 0.016 nM
- CC50 at 4 day [2]: > 1000 nM

Compound: COc1ccc2c(=O)n(-c3ccc(Cl)c4c(NS(C)(=O)=O)nn(C)c34)c([C@H](Cc3cc(F)cc(F)c3)NC(=O)Cn3ccc(C4CCC4)n3)nc2c1 [Example 7, (S)—N-(1-(3-(4-chloro-1-methyl-3-(methylsulfonamido)-1H-indazol-7-yl)-7-methoxy-4-oxo-3,4-dihydroquinazolin-2-yl)-2-(3,5-difluorophenyl)ethyl)-2-(3-cyclobutyl-1H-pyrazol-1-yl)acetamide]
- EC50 [1]: 0.899 nM
- CC50 at 4 day [2]: > 1000 nM

Compound: CC(C)(C)c1ccc2c(=O)n(-c3ccc(Cl)c4c(NS(C)(=O)=O)nn(CC(F)(F)F)c34)c([C@H](Cc3cc(F)cc(F)c3)NC(=O)Cn3nc(C(F)F)c4c3C(F)(F)[C@@H]3C[C@H]43)nc2c1 [Example 28, N—((S)-1-(7-(tert-butyl)-3-(4-chloro-3-(methylsulfonamido)-1-(2,2,2-trifluoroethyl)-1H-indazol-7-yl)-4-oxo-3,4-dihydroquinazolin-2-yl)-2-(3,5-difluorophenyl)ethyl)-2-((3bS,4aR)-3-(difluoromethyl)-5,5-difluoro-3b,4,4a,5-tetrahydro-1H-cyclopropa[3,4]cyclopenta[1,2-c]pyrazol-1-yl)acetamide]
- CC50 at 4 day [2]: > 1000 nM
